Results published in patent US20040235873A1, “Antiinflammatoric and antitussive compositions” (priority 2001, published 2004).

Assays:
Type in all cases: in vivo, Hartley male guinea pigs
[1] = system: ovalbumin (OA)-sensitized guinea pigs; assay: Cell invasion in bronchovesicular washing fluid (BALF) of ovalbumin-sensitized guinea pigs after antigen induction; conditions: for Number of eosinophils invaded in BALF / Number of the total cells invaded in BALF: 24 hours after induction
Protocol: The present test was carried out according to the method mentioned below, with reference to the method of Lagente et al [Clin. Exp. Allergy, 23, 1002-1010 (1993)] and the method of Dunn et al [Am. Rev. Resp. Dis., 137, 541-547 ([…])].
Hartley male guinea pigs (from Nippon Charles River) were raised at a constant temperature (22 to 23° C.) and a constant humidity (50 to 60%) and healthy animals of those having a body weight of from 350 to 450 g were used in the test. The guinea pigs were put in a plastic box (30×50×30 cm), and made to inhale 2 mg/ml of a solution of ovalbumin (hereinafter sometimes abbreviated to OA, from Sigma Aldrich) for30minutes, twice at an interval of 48 hours for […] sensitization. An ultrasonic nebulizer (NE-U12, by Omron) was used for the inhalation. Antigen induction in the test animals was carried out 13 to 15 days after the final sensitization, in the same plastic box as that for the sensitization. For it, the test animals were made to inhale 1% (w/v) OA solution for 15 minutes to induce reaction. Those of the control group with no OA inhalation were made to inhale saline.
In this stage, a histamine H1-receptor antagonist, pyrilamine (by Sigma Aldrich) was intravenously administered (2 mg/kg) to the test animals 30 minutes before the antigen induction, for evading animal death owing to anaphylactic shock. Orotic acid, zinc orotate and a PDE4 inhibitor (rolipram, obtained through chemical synthesis) were orally administered one hour before the antigen induction. To those of the control group not administered with orotic acid, zinc orotate or rolipram, 0.5% (w/v) MC solution was administered.
24 to 72 hours after the antigen induction, the bronchovesicles of the test animals were washed (BAL). Namely, the sensitized guinea pigs were anesthetized with pentobarbital (intravenous-administration, 100 mg/kg), and 5 ml of saline was injected into the guinea pigs via a tracheal cannula through a disposable syringe (by Terumo). In about 5 seconds, the saline injected into the guinea pigs was recovered. This operation was repeated twice to collect the bronchovesicular washing fluid (BALF). BALF was centrifuged at 2500 rpm (1250 ×g) at 4° C. for 10 minutes. The supernatant was removed by suction, and the deposited cells were suspended in one ml of saline. In the suspension, the number of all leucocytes was counted with an automatic cell counter (Celltec MEK-4300, by Nippon Kodensha). A part of the cells were formed into a smear with Cytospin III (by Shand on Southern Instruments). […] Specifically, eosinophils (Eos), neutrophils (Neu), macrophages (Mac), lymphocytes (Lym) and other cells (Other) were counted, and their ratio was calculated. The number of the respective cells was calculated by multiplying the number of all leucocytes by the ratio of the cells counted in the fraction.
The data obtained were expressed as the mean value±standard error thereof. A statistical analysis soft SAS was used for significance test. For significance test of the two groups, Student's t-test was carried out; and for comparison test of multiple groups, Bartlet test was followed by 1-way ANOVA and Dunnett's multiple comparison test. […]
Orotic acid was orally administered 1 hour before the OA inhalation. The data obtained are expressed as the mean value ±standard error of 9 or 10 cases.
Zinc orotate was orally administered 1 hour before the OA inhalation. The data obtained are expressed as the mean value±standard error of 9 or 10 cases. […]

[2] = system: LTD4-induced airway hypersensitiveness in guinea pigs; assay: LTD4-induced airway hypersensitive reaction; conditions: for ID50 of airway hypersensitiveness inhibition: intraduodenal administration 30 minutes before LTD4 inhalation, guinea pigs; for Airway hypersensitiveness inhibition versus control group: orotic acid 10 to 30 mg/kg, zinc orotate 10, 30 mg/kg to the duodenum
Protocol: This was to confirm the presence or absence of antiasthmatic effect of orotic acid and zinc orotate. Concretely, the effect of orotic acid and zinc orotate against leukotriene D4 (hereinafter abbreviated to LTD4)-induced airway hypersensitive reaction was investigated in the manner described below.
Expression of LTD4-induced airway hypersensitiveness was carried out according to the method of Sato et al [Clinical and Experimental Allergy, 26, 957-963 (1996)], as shown below:
(§1) Hartley male guinea pigs (from Nippon SLC) were raised at a constant temperature (22 to 23° C.) and a constant humidity (50 to 60%) for 2 weeks, and healthy animals of those having a body weight of from 150 to 250 g were used in the test. The guinea pigs were anesthetized with urethane (1.2 g/kg) and subjected to tracheotomy and cannulation. The tracheal cannula was connected to an artificial respiration device for small animals (Model 7025, UGO BASIL by VARASE), and artificial respiration (breathing rate, 60/min; 10 ml/kg) was performed. As an airway contraction index thereof, the pulmonary inflation pressure (hereinafter abbreviated to […], its unit being cmH2O) of the test animal was measured via a pressure transducer (TP-603, by Nippon Kodensha). In addition, a cannula was inserted into the carotid […] of the test animal, and the blood pressure through it was also measured via a pressure transducer (Life KitDX-360, by Nippon Kodensha). After the operation, the guinea pigs were left as such for about 5 minutes, and after the base PIP thereof was stabilized, the test with them was started. 50 μg/kg acetylcholine (hereinafter referred to as ACh, by Sigma) was intravenously administered to each test animal to induce airway contraction therein. After the elevated PIP was lowered to the base line thereof, ACh of the same concentration was again intravenously administered. This operation was repeated until the PIP increase (ΔPIP) was stabilized. After the ΔPIP stabilization was confirmed, ACh was intravenously administered
(§2) (30 μg/kg or 40 μg/kg), and the value ΔPIP in this stage was referred to as a Pre value. 30 minutes thereafter, each test animal was made to inhale 0.1 µg/ml of LTD4 (by Funakoshi) for 30 seconds via an ultrasonic nebulizer (NE-U12, by Omron), and after 15 minutes, ACh was again intravenously administered (30 μg/kgor40μg/kg) to each test animal to induce airway contraction therein. The value ΔPIP in this stage was rendered as a Post value. Relative to those of the LTD4 administration group, the animals of the control group were made to inhale saline in place of LTD4. The Post value and the Pre value were compared with each other in the control group and the LTD4 administration group, and the difference was an index of airway hypersensitiveness expression.
(§3) 30 minutes before the start of the LTD 4 inhalation, a test substance was administered to the duodenum of each test animal. In place of the test substance, 0.5% methyl cellulose (hereinafter abbreviated to MC) was administered to the animals of the control group relative to those of the test substance-administration group.
The data obtained were expressed as the mean value±standard error thereof. A statistical analysis soft SAS was used for significance test. For significance test of two groups, paired t-test was carried out (FIG. 1, FIG. 2); and for comparison test of multiple groups, Bartlet test was followed by 1-way ANOVA and Dunnett's multiple comparison test. […]

[3] = system: ACh-induced airway contraction in guinea pigs; assay: Acetylcholine-induced pulmonary inflation pressure change before and after saline inhalation (preliminary test); conditions: for PIP increase (ΔPIP) induced by intravenous ACh, Post value / PIP increase (ΔPIP) induced by intravenous ACh, Pre value / Difference between Pre value and Post value of ACh-induced PIP increase: 30 mg/kg to the duodenum prior to saline inhalation; for PIP increase (ΔPIP) induced by intravenous ACh, Post value: after saline inhalation; for PIP increase (ΔPIP) induced by intravenous ACh, Post value / PIP increase (ΔPIP) induced by intravenous ACh, Pre value: mean±standard error of three cases; for PIP increase (ΔPIP) induced by intravenous ACh, Pre value: before saline inhalation; for Difference between Pre value and Post value of ACh-induced PIP increase: paired t-test
Protocol: as §1, §2, §3
The data obtained were expressed as the mean value±standard error thereof. A statistical analysis soft SAS was used for significance test. For significance test of two groups, paired t-test was carried out (FIG. 1, FIG. 2); and for comparison test of multiple groups, Bartlet test was followed by 1-way ANOVA and Dunnett's multiple comparison test. In every test, p<0.05 indicates a significant difference.
The PIP increase (Pre value, white column) induced by the intravenous ACh administration (40 µg/kg) was 8.40±0.76 cmH2O; while the PIP increase (Post value, black column) after the inhalation of saline, as used for a solvent for LTD4 was 8.30±1.07cmH2.
Orotic acid and zinc orotate each were suspended in 0.5% MC just before use.
Orotic acid, zinc orotate (30 mg/kg) or 0.5% MC was intraduodenally administered 30 minutes before the inhalation of saline. The data obtained are expressed as the mean value±standard error of three cases. N.S. (not significant) indicates no statistically significant difference.

[4] = 100 mg/kg orally 1 hour before OA antigen induction
[5] = 100 or 300 mg/kg orally 1 hour before OA antigen induction

Row | Compound | Effect against cell invasion, 24 hours compared with 48 hours after antigen induction ([1]; orally one hour before antigen induction, not illustrated) | Number of eosinophils invaded in BALF [1, 4] | Number of the total cells invaded in BALF [1, 4] | Statistical significance of airway hypersensitiveness inhibition ([2]; dose of 30 mg/kg to the duodenum, versus MC control, p<0.05) | ID50 of airway hypersensitiveness inhibition [2] | Airway hypersensitiveness inhibition versus control group [2] | PIP increase (ΔPIP) induced by intravenous ACh, Post value [3] | PIP increase (ΔPIP) induced by intravenous ACh, Pre value [3] | Difference between Pre value and Post value of ACh-induced PIP increase [3] | Influence on ACh-induced airway contraction ([3]; FIG. 1, 30 mg/kg intraduodenal) | Number of eosinophils invaded in BALF [1, 5] | Number of the total cells invaded in BALF [1, 5]
1 | COc1ccc(C2CNC(=O)C2)cc1OC1CCCC1 (centres unmarked) [rolipram, reference compound] | any significant difference in the cell invasion was not found between 24 hours and 48 hours |  |  |  |  |  |  |  |  |  |  | 
2 | O=C(O)c1cc(=O)[nH]c(=O)[nH]1 [orotic acid, uracil-4-carboxylic acid] |  | decreased | decreased | showed a statistical significance | 20.1 mg/kg | showed airway hypersensitiveness inhibition that depends on the increase in the dose | 7.33±1.20 cmH2O | 7.50±1.04 cmH2O | no significant difference | did not have any influence on airway contraction |  | 
3 | zinc orotate |  |  |  |  | 16.2 mg/kg | showed airway hypersensitiveness inhibition that depends on the increase in the dose | 8.00±1.44 cmH2O | 7.67±1.20 cmH2O | no significant difference |  | decreased | decreased
